Assay results: paper PMC9209526 (Nature Communications, 2022)

Target: T1, N4posG321V (Abl kinase domain hinge mutant) (Homo sapiens, UniProt P00519, G321V)
T1 construct: His10-TEV (N, cleaved yes); made in house; host or cells: E. coli BL21(DE3)pLysS, co-expressed with YopH phosphatase
T1 sequence (P00519 229-512 G321V): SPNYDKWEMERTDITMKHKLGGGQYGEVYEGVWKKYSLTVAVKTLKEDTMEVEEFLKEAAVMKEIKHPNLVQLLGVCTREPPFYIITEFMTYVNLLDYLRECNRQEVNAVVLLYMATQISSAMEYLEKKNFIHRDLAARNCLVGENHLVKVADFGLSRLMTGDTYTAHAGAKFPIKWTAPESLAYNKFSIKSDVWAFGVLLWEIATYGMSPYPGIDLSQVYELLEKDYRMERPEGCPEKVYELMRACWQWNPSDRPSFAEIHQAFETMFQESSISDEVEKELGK
Assay: ClyA-AS nanopore tweezers single-channel current recording: ligand binding to N4posG321V
Conditions: 1 mM ATP or ATPγS with 10 mM MgCl2; -80 mV

Nc1ncnc2c1ncn2[C@@H]1O[C@H](CO[P@](=O)(O)O[P@](=O)(O)O[P@@](=O)(O)S)[C@@H](O)[C@H]1O [ATPγS]
effect on N4posG321V current trace: did not trigger any change in the current trace
